Test results taken from US8268278B2, “Phosphorus-calcium-strontium compound and uses thereof in endodontic cements” (Centre National de la Recherche Scientifique, priority 2006, dated 2012).

System: polymicrobial inoculum taken from dental plaque
Experiment: Inhibition of growth of a polymicrobial inoculum, diffusion in solid agar medium
Type: cell-based
Settings: freshly prepared samples
Description: The activity of these two cements was verified on freshly prepared samples of cement and samples prepared 13 days previously.

## [Ca+2].[OH-].[OH-] [Ca(OH)2, calcium hydroxide]
  RIZ (relative inhibition zone, compared with freshly prepared pure calcium hydroxide): 1
